Results as given in patent US5258378A, “Pyrroloazepine compounds useful as dopaminergic agents” (Lilly Industries Limited, priority 1990, dated 1993).

Biological target: T1, dopamine, D1 receptors (Rattus norvegicus, UniProt P18901)
T1 construct: from tissue; host or cells: rat striatum (inferred from the cited Billard et al. 1984)
Test: 3H-SCH23390 binding test (Billard et al.)
Details: 3H-SCH23390 radioligand; read-out: IC50 value (the concentration of the compound required to reduce the binding of 3H-SCH23390 by 50%)
From the text: As mentioned above, the compounds of formula (I), with the exception of those in which both R^1 and R^2 are hydrogen and those in which R^3 in optionally substituted phenylsulphonyl, have useful central nervous system activity with low toxicity. […] The compounds of formula (I) and pharmaceutically-acceptable acid addition salts thereof, are potent centrally acting compounds which are useful in the treatment of depression, mild anxiety states, certain kinds of psychotic conditions such as schizophrenia and acute mania and parkinsonism.

T1 sequence (P18901 whole entry): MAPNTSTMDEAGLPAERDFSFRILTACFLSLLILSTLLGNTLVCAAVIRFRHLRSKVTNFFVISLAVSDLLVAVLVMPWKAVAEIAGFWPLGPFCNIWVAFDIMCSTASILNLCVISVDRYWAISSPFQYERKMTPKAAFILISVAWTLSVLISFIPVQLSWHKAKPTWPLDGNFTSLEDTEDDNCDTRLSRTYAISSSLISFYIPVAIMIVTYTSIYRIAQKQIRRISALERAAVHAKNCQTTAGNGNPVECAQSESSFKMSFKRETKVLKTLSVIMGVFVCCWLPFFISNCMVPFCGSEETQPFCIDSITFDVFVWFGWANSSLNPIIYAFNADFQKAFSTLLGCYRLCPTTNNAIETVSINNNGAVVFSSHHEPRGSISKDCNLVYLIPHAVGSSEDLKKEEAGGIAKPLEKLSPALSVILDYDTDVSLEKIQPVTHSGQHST

Row | SMILES | IC50
1 | CN1CCc2c([nH]c(Br)c2Br)C(c2ccccc2)C1 (racemic) [Example 10, 2,3-Dibromo-1,4,5,6,7,8-hexahydro-6-methyl-8-phenylpyrrolo[2,3-d]azepine] | 1100 nM
2 | CN1CCc2c(Br)c[nH]c2C(c2ccccc2)C1 (racemic) [Example 12, 3-Bromo-1,4,5,6,7,8-hexahydro-6-methyl-8-phenylpyrrolo[2,3-d]azepine] | 150 nM
